From patent US10857105B2, “Compounds and compositions for intracellular delivery of therapeutic agents” (ModernaTX, Inc., priority 2017, dated 2020) come the findings set out here.

One data set concerns modified luciferase. As to the kind of experiment: Luciferase expression in liver, lung, spleen and femur 6 hours after intravenous administration to mice. It is filed as in vivo. The following applies: 6 hours after intravenous 0.5 mpk, mice. A digest of the protocol:
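Mice (n=3) got a single 0.5 mpk IV dose of each nanoparticle composition, with MC3 and PBS controls alongside. Organ luminescence flux was read 6 h post-dose.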

Data set [1] can be described thus: Particle size and polydispersity index of nanoparticle compositions (Zetasizer Nano ZS). The format is physicochemical. In outline: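 Formulations of ionizable lipid, DSPC, cholesterol and PEG-DMG (50:10:38.5:1.5 mol %) carrying Luc or hEPO mRNA with all uridines as N1-methyl pseudouridine. Dynamic light scattering in 1×PBS gave particle size and polydispersity; zeta potential read in 15 mM PBS.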

The nature of data set [2]: Encapsulation efficiency of RNA in nanoparticle compositions (RIBOGREEN assay). It is filed as physicochemical. In outline:
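Lipid nanoparticles (ionisable lipid:DSPC:cholesterol:PEG-DMG 50:10:38.5:1.5 mol %) carrying N1-methylpseudouridine luciferase or hEPO mRNA diluted to about 5 μg/mL in TE, pH 7.5, with or without 2% Triton X-100, 15 min at 37° C. RiboGreen fluorescence (ex ~480, em ~520 nm) blank-subtracted; free RNA = intact/disrupted signal.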

The next data set deals with luciferase (Luc) mRNA. The data set is described as follows: Luciferase expression (whole body bioluminescence) after intravenous administration to mice. It is filed as in vivo. The following applies: for Novel lipid/MC3 expression ratio, i.v.: intravenous, luciferase, 6 hr. time point, relative to MC3 formulation. On the procedure:
In order to monitor how effectively various nanoparticle compositions deliver therapeutic and/or prophylactics to targeted cells, different nanparticle compositions including a particular therapeutic and/or prophylactic (for example, a modified or naturally occurring RNA such as an mRNA) are prepared and administered to rodent populations. Mice are intravenously, intramuscularly, intraarterially, or intratumorally administered a single dose including a nanoparticle composition with a formulation such as those provided in Example 3. In some instances, mice may be made to inhale doses. Dose sizes may range from 0.001 mg/kg to 10 mg/kg, where 10 mg/kg describes a dose including 10 mg of a therapeutic and/or, prophylactic in a nanoparticle composition for each 1 kg of body mass of the mouse. A control composition including PBS may also be employed.
Upon administration of nanoparticle compositions to mice, dose delivery profiles, dose responses, and toxicity of particular formulations and doses thereof can be measured by enzyme-linked immunosorbent assays (ELISA), bioluminescent imaging, or other methods. For nanoparticle compositions including mRNA, time courses of protein expression can also be evaluated. Samples collected from the rodents for evaluation may include blood, sera, and tissue (for example, muscle tissue from the site of an intramuscular injection and internal tissue); sample collection may involve sacrifice of the animals.
The efficacy of the nanoparticle compositions presented in Table 1A was evaluated with a bioluminescence study. Formulations were administered intravenously to mice (n=6) at a dosage of 0.5 mg/kg (mpk) and bioluminescence measured at 3, 6, and 24 hour time points. The standard MC3 formulation and, in some instances, a control (e.g., a PBS control) were evaluated for comparison. […] In general, flux decreased as time progressed to less than 10% of the initial flux.
The total flux (measured by area under the curve, AUC) induced by administration of a formulation including a given lipid relative to that induced by administration of a formulation including MC3 was also measured for several lipids.

The mark [3] stands for this setting: Table 1A, lipid:DSPC:cholesterol:PEG-DMG 50:10:38.5:1.5 mol %.
Setting [4] is: Table 1D, compositions for subcutaneous administration, # formulated with hEPO mRNA.
Where [5] appears, read: intravenous administration (Table 3D).
The mark [6] stands for this setting: Table 1B, formulated with hEPO mRNA.

Structures are written as SMILES.

Turning to `CCCCCCCCCC(=O)OCCCCCCCN(CCO)CCCCCCCC(=O)OC(CCCCCCCC)CCCCCCCC` [Compound 96, 7-((8-(Heptadecan-9-yloxy)-8-oxooctyl)(2-hydroxyethyl)amino)heptyl decanoate], in the data set with modified luciferase, the “Total Flux, Liver” value is given as 1.56E+10; the “Total Flux, Lung” value is 3.43E+07; the “Total Flux, Spleen” value is on record as 3.39E+08. In data set [1] (setting [3]), this compound had a Size of 120.5 nm. The Size in data set [1] (setting [4]) was determined as 82.6 nm. This compound also registered an EE in data set [2] (setting [3]) of 79.04%. Also, the AUC in the data set with luciferase (Luc) mRNA (setting [5]) is given as 1.209E+012 p/s*h.

Regarding `CCCCCCCCCOC(=O)CCCCCCCN(CCCCCCCC(=O)OC(CCCCCCCC)CCCCCCCC)CCN1CCOCC1` [Compound 103, Heptadecan-9-yl 8-((2-morpholinoethyl)(8-(nonyloxy)-8-oxooctyl)amino)octanoate], in the data set on modified luciferase, the “Total Flux, Liver” value stood at 8.48E+07; the “Total Flux, Lung” value is given as 2.06E+05; the “Total Flux, Spleen” value amounted to 2.65E+06. In data set [1] (setting [3]), the Size came out at 78.8 nm. Besides, the EE in data set [2] (setting [3]) was 90.77%. Moreover, the AUC with luciferase (Luc) mRNA (i.v. administration (Table 3C)) is reported as 2.4E+10 h*p/s.

For the compound `CCCCCCCCCOC(=O)CCCCCCCN(CCCCCCCC(=O)OC(CCCCCCCC)CCCCCCCC)CCCNC(C)=O` [Compound 108, Heptadecan-9-yl 8-((3-acetamidopropyl)(8-(nonyloxy)-8-oxooctyl)amino)octanoate], the “Total Flux, Liver” value with modified luciferase is reported as 4.63E+08. In addition, in the data set with modified luciferase, the “Total Flux, Lung” value is listed as 9.81E+06. In the data set with modified luciferase, the “Total Flux, Spleen” value is given as 7.82E+08. Also, the Size in data set [1] (setting [3]) was 119 nm; in data set [1] (setting [6]), 89.6 nm; in data set [1] (Table 1E, compositions for subcutaneous administration), 96.1 nm. For the same compound, the EE was 96% in data set [2] (setting [3]) and 95.38% in data set [2] (setting [6]). The “Novel lipid/MC3 expression ratio, i.v.” value in the data set on luciferase (Luc) mRNA turned out to be 0.40.

Regarding `CCCCCCCCC(CCCCCC)C(=O)OCCCCCCCCCN(CCO)CCCCCCCCCOC(=O)C(CCCCCC)CCCCCCCC` (stereo not shown) [Compound 133, ((2-Hydroxyethyl)azanediyl)bis(nonane-9,1-diyl) bis(2-hexyldecanoate)], in the data set with modified luciferase, the “Total Flux, Liver” value is on record as 2.94E+09; the “Total Flux, Lung” value was found to be 3.18E+06; the “Total Flux, Spleen” value stood at 1.77E+07. This compound had a Size in data set [1] (setting [3]) of 66.0 nm. In data set [2] (setting [3]), the EE worked out at 91.48%. This compound gave an AUC in the data set on luciferase (Luc) mRNA (i.v. administration (Table 3C)) of 3.62E+11 h*p/s.

In the case of `CCCCCCCCCOC(=O)CCCCCCCN(CCO)CCCCCCCCCOC(=O)C(CCCCCC)CCCCCCCC` (stereo not shown) [Compound 134, 9-((2-Hydroxyethyl)(8-(nonyloxy)-8-oxooctyl)amino)nonyl 2-hexyldecanoate], in the data set on modified luciferase, the “Total Flux, Liver” value was 1.73E+09; the “Total Flux, Lung” value is on record as 2.82E+06; the “Total Flux, Spleen” value came to 1.85E+07. This compound displayed a Size in data set [1] (setting [3]) of 85.6 nm. In data set [2] (setting [3]), this compound returned an EE of 94.62%. In addition, the AUC in the data set on luciferase (Luc) mRNA (i.v. administration (Table 3C)) turned out to be 3.43E+11 h*p/s.

Regarding `CCCCCCCCC(C)OC(=O)CCCCCCCN(CCO)CCCCCCCOC(=O)C(CCCCCCCC)CCCCCCCC` (stereo not shown) [Compound 135, 7-((8-(Decan-2-yloxy)-8-oxooctyl)(2-hydroxyethyl)amino)heptyl 2-octyldecanoate], in the data set with modified luciferase, the “Total Flux, Liver” value was 1.65E+10; the “Total Flux, Lung” value amounted to 2.71E+07; the “Total Flux, Spleen” value is reported as 1.39E+08. Further, the Size in data set [1] (setting [3]) was determined as 89.5 nm. Moreover, in data set [2] (setting [3]), the EE worked out at 90.20%. The compound also gave an AUC in the data set on luciferase (Luc) mRNA (i.v. administration (Table 3C)) of 1.25E+12 h*p/s.

On to `CCCCCCCCC(CCCCCCCC)OC(=O)CCCCCCCN(CCO)CCCCCC(=O)N(C)CCCCCCCC` [Compound 146, Heptadecan-9-yl 8-((2-hydroxyethyl)(6-(methyl(octyl)amino)-6-oxohexyl)amino)octanoate], for which, in the data set on modified luciferase, the “Total Flux, Liver” value was found to be 7.24E+06; the “Total Flux, Lung” value was determined as 3.88E+06; the “Total Flux, Spleen” value is recorded as 5.11E+07. Besides, the Size in data set [1] (setting [3]) came to 97.0 nm. This compound also yielded an EE in data set [2] (setting [3]) of 91.94%. Further, the AUC in the data set with luciferase (Luc) mRNA (i.v. administration (Table 3C)) stood at 1.04E+09 h*p/s.

For the compound `CCCCCCCCCOC(=O)CCCCCCCN(CCO)CCCCCCCCCC(=O)OC(CCCCCC)CCCCCC` [Compound 147, Tridecan-7-yl 10-((2-hydroxyethyl)(8-(nonyloxy)-8-oxooctyl)amino)decanoate], in the data set with modified luciferase, the “Total Flux, Liver” value is 5.24E+09; the “Total Flux, Lung” value is 6.73E+06; the “Total Flux, Spleen” value stood at 8.57E+07. In data set [1] (setting [3]), this compound came in with a Size of 99.5 nm. Moreover, the Size in data set [1] (setting [6]) is recorded as 111.9 nm. Also, in data set [2] (setting [3]), the EE stood at 88.31%. In addition, the EE in data set [2] (setting [6]) is reported as 91.0%. The same compound registered an AUC in the data set with luciferase (Luc) mRNA (i.v. administration (Table 3C)) of 5.63E+11 h*p/s.

On to `CCCCCCCCC(CCCCCCCC)OC(=O)CCCCCCCN(CCO)CCCCCCCC(=O)OCC(CCCCCCC)OC` (stereo not shown) [Compound 148, Heptadecan-9-yl 8-((2-hydroxyethyl)(8-((2-methoxynonyl)oxy)-8-oxooctyl)amino)octanoate], for which, in the data set on modified luciferase, the “Total Flux, Liver” value came out at 4.39E+09; the “Total Flux, Lung” value is on record as 3.27E+07; the “Total Flux, Spleen” value is reported as 2.71E+09. The EE in data set [2] (setting [3]) is listed as 25.49%. The compound also yielded an AUC in the data set on luciferase (Luc) mRNA (setting [5]) of 4.965E+011 p/s*h.

Consider `CCCCCCCCC(CCCCCCCC)OC(=O)CCCCCCCN(C)CCCCCCCCCCCC(=O)OCCCCC` [Compound 150, Pentyl 12-((8-(heptadecan-9-yloxy)-8-oxooctyl)(methyl)amino)dodecanoate], for which, in the data set with modified luciferase, the “Total Flux, Liver” value is reported as 1.54E+09; the “Total Flux, Lung” value was determined as 2.20E+06; the “Total Flux, Spleen” value amounted to 3.43E+07. In addition, the Size in data set [1] (setting [3]) came out at 63.1 nm. Besides, the EE in data set [2] (setting [3]) turned out to be 96.72%. In addition, the AUC in the data set with luciferase (Luc) mRNA (setting [5]) worked out at 2.704E+011 p/s*h.

`CCCCCCCCCC(=O)OCCCCCCCN(CCO)CCCCCCCOC(=O)C(CCCCCCCC)CCCCCCCC` [Compound 151, 7-((7-(Decanoyloxy)heptyl)(2-hydroxyethyl)amino)heptyl 2-octyldecanoate]: in the data set on modified luciferase, the “Total Flux, Liver” value amounted to 4.72E+09; the “Total Flux, Lung” value is reported as 9.20E+06; the “Total Flux, Spleen” value worked out at 9.27E+07. This compound showed a Size in data set [1] (setting [3]) of 105.7 nm. Moreover, the Size in data set [1] (setting [4]) is reported as 77.6 nm. Besides, the EE in data set [2] (setting [3]) turned out to be 87.86%. Besides, the AUC in the data set with luciferase (Luc) mRNA (setting [5]) came out at 7.010E+011 p/s*h.

In the case of `CCCCCCCCC(CCCCCCCC)OC(=O)CCCCCCCN(CCO)CCCCCCCC(=O)OC(C)(C)C` [Compound 155, tert-Butyl 8-((8-(heptadecan-9-yloxy)-8-oxooctyl)(2-hydroxyethyl)amino)octanoate], in the data set on modified luciferase, the “Total Flux, Liver” value is reported as 8.58E+08; the “Total Flux, Lung” value was determined as 1.00E+07; the “Total Flux, Spleen” value is reported as 2.77E+08. In data set [2] (setting [3]), the EE is given as 37.36%. In the data set with luciferase (Luc) mRNA (setting [5]), the AUC came to 1.266E+011 p/s*h.

For the compound `CCCCCCCCCOC(=O)CCCCCCCN(CCO)CCCCCCCC(=O)OC(C)(C)C` [Compound 158, tert-Butyl 8-((2-hydroxyethyl)(8-(nonyloxy)-8-oxooctyl)amino)octanoate], in the data set with modified luciferase, the “Total Flux, Liver” value came out at 1.99E+05; the “Total Flux, Lung” value is listed as 1.71E+04; the “Total Flux, Spleen” value came out at 1.17E+05. This compound also came in with an EE in data set [2] (setting [3]) of 35.70%. In the data set on luciferase (Luc) mRNA (setting [5]), this compound yielded an AUC of 1.211E+007 p/s*h.

Regarding `CCCCCCCCCOC(=O)CCCCCCCN(CCCCCCCC(=O)OC(CCCCCCCC)CCCCCCCC)CCCNC(=O)COC` [Compound 178, Heptadecan-9-yl 8-((3-(2-methoxyacetamido)propyl)(8-(nonyloxy)-8-oxooctyl)amino)octanoate], in data set [1] (setting [3]), the Size was 104.2 nm. The compound further gave an EE in data set [2] (setting [3]) of 94.7%. In the data set with luciferase (Luc) mRNA, the “Novel lipid/MC3 expression ratio, i.v.” value is 0.03.

In the case of `CCCCCCCCCOC(=O)CCCCCCCN(CCCCCCCC(=O)OC(CCCCCCCC)CCCCCCCC)CCCn1cc(CO)nn1` [Compound 218, Heptadecan-9-yl 8-((3-(4-(hydroxymethyl)-1H-1,2,3-triazol-1-yl)propyl)(8-(nonyloxy)-8-oxooctyl)amino)octanoate], the Size in data set [1] (setting [3]) came out at 81.4 nm. In data set [2] (setting [3]), this compound returned an EE of 98.8%. In the data set on luciferase (Luc) mRNA, the “Novel lipid/MC3 expression ratio, i.v.” value is more than 0.01.
